The record followed here is publication PMC11420952, “A Chemical Approach to Assess the Impact of Post-translational Modification on MHC Peptide Binding and Effector Cell Engagement” (ACS Chemical Biology, 2024).

This experiment concerns the target T1, H-2K^b (Mus musculus, UniProt P01901).
T1 construct: endogenous in cells; host or cells: RMA-S cells (TAP-deficient)
T1 sequence (P01901 22-369): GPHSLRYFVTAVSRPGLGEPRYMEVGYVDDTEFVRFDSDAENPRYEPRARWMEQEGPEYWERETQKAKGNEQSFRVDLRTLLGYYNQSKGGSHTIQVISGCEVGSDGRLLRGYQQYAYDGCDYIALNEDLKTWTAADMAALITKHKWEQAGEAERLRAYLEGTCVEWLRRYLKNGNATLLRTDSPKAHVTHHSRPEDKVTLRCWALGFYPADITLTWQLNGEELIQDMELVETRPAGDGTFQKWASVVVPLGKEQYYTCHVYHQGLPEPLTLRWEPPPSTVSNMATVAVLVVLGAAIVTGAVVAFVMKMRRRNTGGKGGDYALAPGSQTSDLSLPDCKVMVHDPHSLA
T1 sequence (P01887 21-119 partner): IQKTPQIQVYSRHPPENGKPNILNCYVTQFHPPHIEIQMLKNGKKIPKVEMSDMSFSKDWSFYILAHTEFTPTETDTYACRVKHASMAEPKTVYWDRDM
Kind of experiment: cell-based. Particulars: sarsWT concentration scan; 1 h 26 °C then 6 h 37 °C; APC anti-mouse H-2K^b antibody, flow cytometry; Figure S2, mean ± SD n = 3; read-out: EC50 of pMHC stabilization on RMA-S cells.

Usually EC50 stands for the concentration needed to bring the measured effect to its halfway point.

Where no end group is shown, it is not given here.

As for ESIVRFPNI [sarsWT], the EC50 worked out at 1.7 µM.
